Source: ChEMBL document CHEMBL5136988, “Chlororesistoflavins A and B, Chlorinated Benzopyrene Antibiotics Produced by the Marine-Derived Actinomycete Streptomyces sp. Strain EG32” (2022)
≈ marks a conversion by molar mass, not a printed value.

Each compound was assayed on Staphylococcus aureus (assay: Antibacterial activity against methicillin-resistant Staphylococcus aureus TCH1516 assessed as growth inhibition incubated for 20 hrs by CLSI based broth microdilution method).
Type: functional

Structure (SMILES) | MIC
Cc1cc(O)c2c3c1C(=O)C=C1C(C)(C)C(=O)c4c(O)cc(O)c(c4[C@@]13O)C2=O | 0.25 µg/mL (≈ 0.637 µM)
Cc1cc(O)c2c3c1C(=O)C=C1C(C)(C)C(=O)c4c(O)c(Cl)c(O)c(c4[C@@]13O)C2=O | 2 µg/mL (≈ 4.69 µM)
Cc1cc(O)c2c3c1C(=O)C(Cl)=C1C(C)(C)C(=O)c4c(O)cc(O)c(c4[C@@]13O)C2=O | 0.25 µg/mL (≈ 0.586 µM)
Cc1cc(O)c2c3c4c(cc(O)c13)C(C)(C)C(=O)c1c(O)cc(O)c(c1-4)C2=O [HELIOMYCIN] | 0.125 µg/mL (≈ 0.332 µM)

Each compound was assayed on Escherichia coli (assay: Antibacterial activity against Escherichia coli LptD4213 assessed as growth inhibition incubated for 20 hrs by CLSI based broth microdilution method).
Type: functional

Structure (SMILES) | MIC
Cc1cc(O)c2c3c1C(=O)C=C1C(C)(C)C(=O)c4c(O)cc(O)c(c4[C@@]13O)C2=O | 64 µg/mL (≈ 163 µM)
Cc1cc(O)c2c3c1C(=O)C=C1C(C)(C)C(=O)c4c(O)c(Cl)c(O)c(c4[C@@]13O)C2=O | 128 µg/mL (≈ 300 µM)
Cc1cc(O)c2c3c1C(=O)C(Cl)=C1C(C)(C)C(=O)c4c(O)cc(O)c(c4[C@@]13O)C2=O | 32 µg/mL (≈ 75 µM)
Cc1cc(O)c2c3c4c(cc(O)c13)C(C)(C)C(=O)c1c(O)cc(O)c(c1-4)C2=O [HELIOMYCIN] | 32 µg/mL (≈ 85 µM)
